The values that follow come from PubChem BioAssay (NCI).

What all share (experiment): DTP human tumour cell line panel, 48 h
The subject of experiment [1] is HCT-15 colon.
Experiment [2] deals with NCI-H23 lung.
Experiment [3] relates to UACC-257 melanoma.
In experiment [4] the test system is RPMI-8226 leukemia.
In experiment [5] the test system is COLO 205 colon.
Experiment [6] concerns K-562 leukemia.
Experiment [7] concerns SF-268 CNS.
The test system of experiment [8] is KM12 colon.
Experiment [9] has as its system SF-539 CNS.
For experiment [10], the system named is SW-620 colon.

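Interpolation was linear, between the two tested concentrations surrounding the appropriate level; five concentrations were tested over 48 hours in 96-well plates. GI50 marks 50% less growth. The concentration for full growth arrest is given as TGI.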

Turning to `COc1cc2c(c(OC)c1OC)-c1ccc([O-])c(=O)cc1[C@@H](NC(C)=O)CC2.COc1cc2c(c(OC)c1OC)-c1ccc([O-])c(=O)cc1[C@@H](NC(C)=O)CC2.[Cu+2]`, the GI50 in [1] is 3.73 µM; in experiment [2], 3.73 µM; in experiment [3], 12.5 µM; in experiment [4], 3.17 µM; in [5], 2.82 µM; in experiment [6], 2.48 µM. The GI50 in experiment [7] is 3.89 µM; in [8], 1.87 µM; in experiment [9], 1.88 µM; in experiment [10], 3.44 µM. Also, the TGI in [1] was over 100 µM; in experiment [2] it was over 100 µM; in experiment [3], over 100 µM; in experiment [4], 38.2 µM; in [5] it was 9.19 µM; in experiment [6], over 100 µM. For the same compound, the TGI is 22.7 µM in [7], 5.52 µM in [8], 4.53 µM in [9] and over 100 µM in [10].

In the case of `COc1ccc(-c2coc3ncnc(N)c23)cc1`, the GI50 in [1], in experiment [2], in experiment [3], in experiment [4], in [5] and in [6] was over 25 µM throughout. Moreover, the GI50 in [7], in experiment [8], in experiment [9] and in experiment [10] was over 25 µM each time. In addition, the TGI in [1], in [2], in experiment [3], in experiment [4], in experiment [5] and in [6] was over 25 µM each time. The TGI in experiment [7], in experiment [8], in experiment [9] and in experiment [10] was over 25 µM each time.

Regarding `N=c1ccn2c(n1)OC1C(OP(=O)(O)O)C(CO)OC12` (stereo not drawn), the TGI in experiment [1], in experiment [2], in [3], in experiment [4], in experiment [5] and in [6] was over 100 µM each time. The TGI in experiment [7], in [8], in [9] and in [10] was over 100 µM each time.

`CCC1CCc2nc3sc(C(=O)Nc4ccccc4F)c(N)c3cc2C1` (stereo not drawn): the GI50 in experiment [1] is 0.401 µM; in [2], over 100 µM; in experiment [3], 0.934 µM; in experiment [4], 0.94 µM; in [5] it was 7.4 µM; in [6], 0.402 µM. For the same compound, the GI50 was 16.8 µM in [7], 0.643 µM in [8] and 0.819 µM in experiment [10]. The TGI in experiment [1], in experiment [2], in experiment [3], in experiment [4], in experiment [5] and in experiment [6] was over 100 µM throughout. Also, the TGI in experiment [7], in [8], in experiment [9] and in experiment [10] was over 100 µM in each case.

For `Cc1cc(N(CCOS(C)(=O)=O)CCOS(C)(=O)=O)ccc1C=Nc1ccc(-c2csc(-c3ccccc3)n2)c(Cl)c1`, the TGI is 36.1 µM in experiment [1]; 29 µM in experiment [2]; 49.3 µM in experiment [3]; over 71 µM in [4]; 10.2 µM in [5]; 51 µM in [6]. In addition, the TGI in experiment [7] is 54.8 µM; in experiment [8] it was 27.2 µM; in [9] it was 16.8 µM; in experiment [10], over 64.7 µM.

In the case of `CC1(C)CC23C(=O)N(c4ccccc4)C(=Nc4ccccc4)NC2=CC(C#N)=C(C#N)C3O1` (stereo not drawn), the TGI in experiment [1], in experiment [2], in experiment [3], in experiment [4], in experiment [5] and in experiment [6] was over 100 µM throughout. In addition, the TGI in [7], in [8], in experiment [9] and in experiment [10] was over 100 µM each time.

As for `CC1=CC2=C(OCO1)C(=O)c1ccccc1C2=O`, the TGI was 51.6 µM in [1]; 8.06 µM in [2]; 7.29 µM in experiment [3]; over 100 µM in experiment [4]; 11.5 µM in experiment [5]; 40.3 µM in experiment [6]. The TGI turned out to be 26.1 µM in experiment [7], 21.9 µM in experiment [8], 12.8 µM in experiment [9] and 21.6 µM in experiment [10].

On to `CC(=O)O[C@H](C[C@H](C(C)C)N(C)C(=O)[C@@H](NC(=O)[C@H]1CCCCN1C)C(C)C)c1nc(C(=O)N[C@@H](Cc2ccccc2)C[C@H](C)C(=O)O)c(C)s1`, for which the GI50 in [1] is 0.00385 µM; in experiment [2] it was under 0.0025 µM; in experiment [3], over 25 µM; in experiment [4], under 0.0025 µM; in experiment [5] it was under 0.0025 µM; in experiment [6] it was under 0.0025 µM. Further, the GI50 in [7], in [8], in experiment [9] and in experiment [10] was under 0.0025 µM each time. The total growth inhibition concentration (TGI) in experiment [1] is over 25 µM; in experiment [2] it was over 25 µM; in experiment [3], over 25 µM; in experiment [4] it was over 25 µM; in [5] it was 0.00595 µM; in experiment [6] it was over 25 µM. Besides, the TGI in [7] was over 25 µM; in [8] it was over 25 µM; in experiment [9], 0.0187 µM; in [10], over 25 µM.

Take `COC1=CC(=O)c2ccc(C(C)C)cc2C1(C)C1=NC(C)(C)CO1` (stereo not drawn): the TGI in [1], in experiment [2], in experiment [3], in [4], in experiment [5] and in [6] was over 100 µM in each case. The TGI in experiment [7], in experiment [8], in [9] and in experiment [10] was over 100 µM throughout.

For the compound `CCCCCCN(CCCCCC)C(=N)c1ccnc2ccccc12`, the GI50 in experiment [1] is 3.82 µM; in experiment [2] it was 6.9 µM; in [3], 2.37 µM; in [4] it was 2.93 µM; in [5], 1.45 µM; in [6], 2.37 µM. In addition, the GI50 was 13 µM in experiment [7], 3.95 µM in experiment [8], 5.12 µM in experiment [9] and 3.27 µM in experiment [10]. The TGI in experiment [1] turned out to be 16.6 µM; in experiment [2], 23.4 µM; in [3] it was 5.62 µM; in experiment [4], 11.6 µM; in [5] it was 2.97 µM; in experiment [6], 8.35 µM. Further, the TGI in experiment [7] came to 26.5 µM; in experiment [8], 15.2 µM; in [9], 17.5 µM; in [10], 17.8 µM.

In the case of `[N-]=[N+]=NC1(N=[N+]=[N-])C(=O)NN=C(c2ccccc2)C1=O` (stereo not drawn), the TGI in [1], in experiment [2], in experiment [3], in experiment [4], in [5] and in [6] was over 100 µM in each case. Besides, the TGI in experiment [7] is 28.4 µM; in experiment [8] it was over 100 µM; in experiment [9] it was over 100 µM; in experiment [10], over 100 µM.

With `OCCN1CCN(CCO)Cc2ccccc2OCCOc2ccccc2C1`, the TGI in experiment [1], in [2], in [3], in experiment [4], in experiment [5] and in experiment [6] was over 100 µM in each case. In addition, the concentration for total growth inhibition (TGI) in experiment [7], in experiment [8], in experiment [9] and in [10] was over 100 µM each time.

Regarding `O=c1oc2ccc(Cl)cc2c(=O)n1-c1ccc(Cl)cc1F`, the GI50 in [1] is 0.791 µM; in [2], 0.326 µM; in experiment [3], 0.496 µM; in [4], 0.28 µM; in experiment [5], 6.74 µM; in experiment [6], 0.422 µM. For the same compound, the GI50 in experiment [7] was 0.419 µM; in experiment [8], 1.52 µM; in experiment [9], 0.462 µM; in experiment [10] it was 0.652 µM. In addition, the TGI was 6.69 µM in experiment [1]; 1.79 µM in [2]; 2.31 µM in [3]; 1.09 µM in experiment [4]; 22.4 µM in experiment [5]; over 100 µM in [6]. For the same compound, the total growth inhibition concentration (TGI) in experiment [7] was 7.07 µM; in experiment [8], 4.5 µM; in experiment [9] it was 3.7 µM; in [10], 9.02 µM.

As for `CS(=O)(=O)CCNCc1ccc(-c2ccc3ncnc(Nc4ccc(OCc5ccccc5)c(C(F)(F)F)c4)c3c2)o1`, the GI50 in experiment [1] was 4.65 µM; in experiment [2], 6.37 µM; in [3], 4.74 µM; in experiment [4] it was 7.37 µM; in [5], 4.97 µM; in experiment [6], 6.83 µM. For the same compound, the GI50 in experiment [7] is 7.99 µM; in experiment [8] it was 5.48 µM; in experiment [9] it was 4.69 µM; in [10], 4.62 µM. For the same compound, the TGI is 10.2 µM in experiment [1]; over 19.4 µM in [2]; 9.09 µM in experiment [3]; 18.2 µM in experiment [4]; 9.11 µM in experiment [5]; 18.2 µM in [6]. Further, the TGI is over 25 µM in experiment [7], 11.3 µM in experiment [8], 9.88 µM in experiment [9] and 8.66 µM in experiment [10].

Regarding `CC1(C)SC2C(C(=O)O)N=C(Cc3ccccc3)N2C1C(=O)O` (stereo not drawn), the TGI in experiment [1] is over 100 µM; in [2], over 100 µM; in [3], 49.2 µM; in [4], over 100 µM; in experiment [5], over 100 µM; in experiment [6] it was over 100 µM. Also, the TGI in [7] was 98.1 µM; in experiment [8] it was over 100 µM; in experiment [9] it was 57.3 µM; in [10], over 100 µM.

Turning to `CON(C)C(=O)C(Cc1ccccc1)NC(=O)OC(C)(C)C` (stereo not drawn), the TGI in experiment [1], in experiment [2], in [3], in experiment [4], in [5] and in experiment [6] was over 100 µM in each case. Moreover, the TGI in experiment [7], in [8], in experiment [9] and in [10] was over 100 µM throughout.

In the case of `C[C@]12CCC3c4ccc(OC(=O)c5ccccc5)cc4CC[C@H]3C1CC[C@@H]2OC(=O)C12OC1CCC2=O` (stereo partly drawn), the TGI came to 31.3 µM in experiment [1]; 9.76 µM in experiment [2]; 14.8 µM in [3]; 14.8 µM in experiment [4]; 7.49 µM in experiment [5]; 5.06 µM in [6]. The TGI in experiment [7] came out at 14.6 µM; in experiment [8], 13.6 µM; in experiment [9] it was 4.31 µM; in experiment [10] it was 4.86 µM.

As for `CC1(C)CCC(=O)c2c(O)ccc(O)c21`, the TGI was over 100 µM in [1]; over 100 µM in [2]; 81.9 µM in experiment [3]; over 100 µM in experiment [4]; over 100 µM in experiment [5]; over 100 µM in experiment [6]. The concentration for total growth inhibition (TGI) in experiment [7], in experiment [8], in experiment [9] and in [10] was over 100 µM throughout.

On to `Nc1nc(N)c2nc(CNc3ccc(C(=O)CC(CCC(=O)O)C(=O)O)cc3)cnc2n1` (stereo not drawn), for which the GI50 was 0.168 µM in experiment [1]; 0.441 µM in [2]; over 25.5 µM in experiment [3]; 5.77 µM in [5]; 0.0406 µM in experiment [6]; 0.197 µM in experiment [7]. The GI50 in experiment [8] was 0.232 µM; in experiment [9], 0.176 µM; in [10] it was 0.0332 µM. Also, the TGI in experiment [1], in experiment [2], in [3], in [4], in [5] and in experiment [6] was over 100 µM each time. Also, the TGI in experiment [7], in [8], in [9] and in experiment [10] was over 100 µM each time.

For orientation: GI50 means the concentration at which growth is held to half of that of the control. In general, TGI refers to the concentration giving total growth inhibition. High values mean less potent growth arrest, low ones more potent growth arrest.
